The structures appear in SMILES notation. In brackets after ≈: the same amount, converted by molar mass. Activity calls are given as the source filed them.

Experimental findings from ChEMBL document CHEMBL4339248, “Secondary Metabolites Produced by Combined Culture of Penicillium crustosum and a Xylaria sp” (J Nat Prod, 2019) are described below.

One assay concerns Mycolicibacterium phlei. In words: Antimicrobial activity against Mycobacterium phlei by BSAC standardized disc susceptibility testing method. The class given is functional.
For a further assay, the system named is Bacillus subtilis. In words: Antimicrobial activity against Bacillus subtilis by BSAC standardized disc susceptibility testing method. The class given is functional.
The test system of another assay is Vibrio parahaemolyticus. In words: Antimicrobial activity against Vibrio parahaemolyticus by BSAC standardized disc susceptibility testing method. The class given is functional.
The next assay concerns HL-60. Nature of the assay: Cytotoxicity in human HL60 cells assessed as reduction in cel viability incubated for 24 or 72 hrs by SRB or MTT assay. The assay is classed as functional, cell-based. (In general: Tetrazolium assays rely on reduction of a dye to a coloured formazan, in cell work by metabolically active cells.)
Another assay deals with K562. In words: Cytotoxicity in human K562 cells assessed as reduction in cel viability incubated for 24 or 72 hrs by SRB or MTT assay. The class given is functional, cell-based.
A further assay relates to Bel-7402. In words: Cytotoxicity in human Bel7402 cells assessed as reduction in cel viability incubated for 24 or 72 hrs by SRB or MTT assay. The assay is classed as functional, cell-based.
A further assay relates to HCT-116. In words: Cytotoxicity in human HCT116 cells assessed as reduction in cel viability incubated for 24 or 72 hrs by SRB or MTT assay. The assay is classed as functional, cell-based.
The test system of a further assay is A549. Nature of the assay: Cytotoxicity in human A549 cells assessed as reduction in cel viability incubated for 24 or 72 hrs by SRB or MTT assay. The class given is functional, cell-based.
The next assay deals with HeLa. Nature of the assay: Cytotoxicity in human HeLa cells assessed as reduction in cel viability incubated for 24 or 72 hrs by SRB or MTT assay. The assay is classed as functional, cell-based.
The subject of the next assay is L02. Nature of the assay: Cytotoxicity in human L02 cells assessed as reduction in cel viability incubated for 24 or 72 hrs by SRB or MTT assay. The class given is cell-based.
The next assay deals with MGC-803. In words: Cytotoxicity in human MGC803 cells assessed as reduction in cel viability incubated for 24 or 72 hrs by SRB or MTT assay. The class given is functional, cell-based.
Assay [1] in a line: Cytotoxicity in human HO8910 cells assessed as reduction in cel viability incubated for 24 or 72 hrs by SRB or MTT assay. The class given is functional, cell-based. Conditions: HO-8910.
The subject of the next assay is SH-SY5Y. In words: Cytotoxicity in human SH-SY5Y cells assessed as reduction in cel viability incubated for 24 or 72 hrs by SRB or MTT assay. The assay is classed as functional, cell-based.
The subject of a further assay is PC-3. In words: Cytotoxicity in human PC3 cells assessed as reduction in cel viability incubated for 24 or 72 hrs by SRB or MTT assay. The assay is classed as functional, cell-based.
A further assay concerns MDA-MB-231. Nature of the assay: Cytotoxicity in human MDA-MB-231 cells assessed as reduction in cel viability incubated for 24 or 72 hrs by SRB or MTT assay. The class given is functional, cell-based.
Another assay deals with Penicillium crustosum. Nature of the assay: Antimicrobial activity against Penicillium crustosum PRB-2 assessed as inhibition of microbial growth at 25 ug/disk by disk diffusion test. The assay is classed as functional, organism-based.
The next assay has as its system Xylaria sp. In words: Antimicrobial activity against Xylaria sp. HDN13-249 assessed as inhibition of microbial growth at 25 ug/disk by disk diffusion test. The assay is classed as functional.

For the molecule `O=C(O)c1cn(C2CC2)c2cc(N3CCNCC3)c(F)cc2c1=O` [CIPROFLOXACIN], the MIC (commonly the smallest concentration in the dilution series that meets the test's criterion for growth inhibition) against Mycolicibacterium phlei was 1.56 µM (≈ 0.517 µg/mL); in the assay with Bacillus subtilis, 1.56 µM (≈ 0.517 µg/mL); in the assay on Vibrio parahaemolyticus it was 12.5 µM (≈ 4.14 µg/mL).

For the molecule `CCCCC[C@H](O)CCCCCCCCCCCc1cc(O)cc(O)c1`, the IC50 in the assay on HL-60, in the assay on K562, with Bel-7402, in the assay with HCT-116, in the assay with A549 and in the assay with HeLa was more than 30 µM in each case. Also, the IC50 (with L02; with MGC-803; in [1]; with SH-SY5Y; with PC-3; with MDA-MB-231) was more than 30 µM each time. The “growth inhibition (GI)” value in the assay on Penicillium crustosum and in the assay on Xylaria sp. was “inactive” each time. Moreover, the figures for the MIC in the assay on Mycolicibacterium phlei, in the assay with Bacillus subtilis and against Vibrio parahaemolyticus were 25 µM (≈ 9.11 µg/mL), more than 200 µM and more than 200 µM, respectively.

As to `CCCCC[C@H](O)CCCCCCCCCCCc1cc(O)cc(O)c1C(=O)O`, the 50% inhibitory concentration (IC50) with HL-60, with K562, in the assay on Bel-7402, with HCT-116, with A549 and with HeLa was more than 30 µM throughout. Also, the IC50 (in the assay with L02; in the assay with MGC-803; in assay [1]; in the assay with SH-SY5Y; in the assay on PC-3; with MDA-MB-231) was more than 30 µM in each case. For the same molecule, the “growth inhibition (GI)” value with Penicillium crustosum and in the assay on Xylaria sp. was “inactive” each time. Further, the minimum inhibitory concentration (MIC) against Mycolicibacterium phlei is 6.25 µM (≈ 2.55 µg/mL); in the assay on Bacillus subtilis it was more than 200 µM; in the assay on Vibrio parahaemolyticus it was 12.5 µM (≈ 5.11 µg/mL).

As to `CCCCC[C@@H](CCCCCCCCCCCc1cc(O)cc(O)c1C(=O)O)OS(=O)(=O)O`, the IC50 in the assay with HL-60, with K562, in the assay on Bel-7402, in the assay with HCT-116, in the assay on A549 and in the assay on HeLa was more than 30 µM in each case. The half-inhibitory concentration (IC50) (in the assay with L02; in the assay on MGC-803; in [1]; with SH-SY5Y; in the assay on PC-3; in the assay on MDA-MB-231) was more than 30 µM each time. Also, the “growth inhibition (GI)” value in the assay on Penicillium crustosum and in the assay on Xylaria sp. was “inactive” throughout.
